Results from patent publication US6248738A, “Isoquinolines as urokinase inhibitors” (Pfizer Inc., priority 1997, dated 2001).

Assays:
tumour metastasis = conditions: literature; cited from earlier work
[1] = test system: angiogenesis/capillary network formation; conditions: literature; cited from earlier work
human plasmin = human plasmin (Homo sapiens, UniProt P00747); test: Inhibition of human plasmin (substrate Chromozym-PL); type: biochemical; conditions: selectivity for uPA over human plasmin
Sequence of human plasmin (P00747 97-810): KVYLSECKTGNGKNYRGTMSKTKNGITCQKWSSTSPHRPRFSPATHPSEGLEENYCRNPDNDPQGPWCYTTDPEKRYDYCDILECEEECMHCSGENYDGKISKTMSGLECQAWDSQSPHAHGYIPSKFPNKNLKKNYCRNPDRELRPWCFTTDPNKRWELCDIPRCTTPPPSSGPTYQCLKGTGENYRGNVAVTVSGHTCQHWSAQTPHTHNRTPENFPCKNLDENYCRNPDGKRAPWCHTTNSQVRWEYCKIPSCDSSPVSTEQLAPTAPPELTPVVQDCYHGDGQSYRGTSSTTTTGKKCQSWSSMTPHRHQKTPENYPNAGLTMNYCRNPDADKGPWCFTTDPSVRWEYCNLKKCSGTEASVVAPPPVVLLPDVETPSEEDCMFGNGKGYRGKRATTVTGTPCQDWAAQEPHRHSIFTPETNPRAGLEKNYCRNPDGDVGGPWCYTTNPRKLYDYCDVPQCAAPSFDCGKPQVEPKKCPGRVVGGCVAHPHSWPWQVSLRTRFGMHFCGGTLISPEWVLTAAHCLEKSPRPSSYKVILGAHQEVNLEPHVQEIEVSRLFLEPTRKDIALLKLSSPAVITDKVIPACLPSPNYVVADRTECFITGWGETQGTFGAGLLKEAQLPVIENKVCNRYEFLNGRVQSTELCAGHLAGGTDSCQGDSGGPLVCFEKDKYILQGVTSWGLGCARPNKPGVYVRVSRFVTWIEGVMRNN

human urokinase = biological target: T1, human urokinase (Homo sapiens, UniProt P00749); test: Inhibition of human urokinase (HMWT human urokinase, substrate S-2444); type: biochemical; conditions: S-2444 substrate, read-out: Ki uPA
T1 construct: the urokinase used was HMWT Human Urokinase (Calbiochem 672081); purchased Calbiochem 672081

human tPA = human tPA (Homo sapiens, UniProt P00750); test: Inhibition of human tPA (substrate S-2288, tPA stimulator); type: biochemical; conditions: selectivity for uPA over human tPA
Sequence of human tPA (P00750 33-562): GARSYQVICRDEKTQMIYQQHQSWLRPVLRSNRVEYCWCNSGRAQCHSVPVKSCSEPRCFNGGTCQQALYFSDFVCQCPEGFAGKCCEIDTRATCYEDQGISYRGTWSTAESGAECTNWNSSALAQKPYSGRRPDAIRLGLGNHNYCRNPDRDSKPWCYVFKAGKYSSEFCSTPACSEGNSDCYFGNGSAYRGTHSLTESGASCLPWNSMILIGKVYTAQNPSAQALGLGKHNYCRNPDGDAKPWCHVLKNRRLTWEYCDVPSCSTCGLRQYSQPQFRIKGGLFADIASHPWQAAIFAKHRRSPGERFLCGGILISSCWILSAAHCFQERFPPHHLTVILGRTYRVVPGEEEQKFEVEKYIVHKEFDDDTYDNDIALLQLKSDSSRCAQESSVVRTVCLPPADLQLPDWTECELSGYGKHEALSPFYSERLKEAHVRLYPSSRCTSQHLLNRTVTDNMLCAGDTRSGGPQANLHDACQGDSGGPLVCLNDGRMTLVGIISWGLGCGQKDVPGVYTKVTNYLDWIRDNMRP

Row | SMILES | inhibition of tumour metastasis/invasion in vivo (tumour metastasis) | inhibition of angiogenesis/capillary network formation in vitro [1] | vs. plasmin* (selectivity figures) (human plasmin) | Ki (human urokinase) | vs. tPA* (selectivity figures) (human tPA)
1 | N=C(N)NC(=O)c1nc(Cl)c(N)nc1N [Amiloride] | inhibit tumour metastasis in vivo | angiogenesis/capillary network formation in vitro |  |  | 
2 | NC(N)=Nc1nccc2ccc(/C=C/c3ccccc3)cc12 [Example 19] |  |  | 68 | 400 nM | 88
3 | NC(N)=Nc1nccc2ccc(Br)cc12 [Example 15] |  |  | 204 | 249 nM | 380
